As a reminder, the AC50 is the concentration giving half of the maximal activity seen.

Active and inactive are the calls of the source.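 The calls were made as follows: active = caspase luminescence falls with dose and the half-maximal concentration AC50 from the fitted curve is at or below a set limit; inconclusive = flat fit at 30 to 70% signal loss, or invalid fit; inactive = AC50 above the limit, or signal rises instead.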 A value given as a limit tells only on which side of the number the result lay.

This assay deals with INS-1E cytokine-induced caspase-3/7, Caspase-Glo luminescence, 48 h. In words: inhibitors of cytokine-induced caspase-3/7 activity, dose response, orthogonal assay for beta-cell apoptosis protection project, INS-1E rat cells, luminescence (AID 463206).
Regarding `Cc1ccc(C(C)C)c(OCc2nn(CC(=O)c3ccc(OC(F)F)cc3)c3[n+]2CCCCC3)c1`, the AC50 was > 26 µM (inactive).

On to `O=C(NCCc1cn2ccccc2n1)c1cc(COc2ccc3ncccc3c2)on1`, for which the AC50 was > 26 µM (inactive).

Take `O=C(Nc1ccc(Cc2ccncc2)cc1)c1ccc([N+](=O)[O-])o1`: the AC50 was > 26 µM (inactive).

Turning to `COc1ccccc1CNCC(O)Cn1c2ccccc2c2ccccc21` (stereo not given), the AC50 was > 26 µM (inactive).

As for `O=C(N/N=C/c1ccccc1)c1c(O)c2ccccc2[nH]c1=O`, the AC50 was > 26 µM (inactive).

Consider `CCCCCc1cc(=O)oc2c(C(CCN3CCCCC3)c3ccc4c(c3)OCO4)c(OC)cc(OC)c12` (stereo not given), for which the AC50 is > 26 µM (inactive).

Regarding `CN(c1ccccc1)S(=O)(=O)c1ccc(NC(=O)c2nc(S(C)(=O)=O)ncc2Cl)cc1`, the AC50 is > 26 µM (inactive).

For the compound `Cc1ccc(C(=O)N/C(=C\c2ccc(-c3ccc(Cl)cc3)o2)C(=O)NCCCN(C)C)cc1`, the AC50 is 11.9 µM.

Consider `CCCNC1=C(N(C(C)=O)c2cccc(F)c2)C(=O)c2ccccc2C1=O`, for which the AC50 is > 26 µM (inactive).

For `Oc1ccc(-c2n[nH]c(C(F)(F)F)c2-c2ccccc2)c(O)c1`, the AC50 is > 26 µM (inactive).

Turning to `Cc1ccc(S(=O)(=O)Nc2ccccc2C(=O)Nc2nc(-c3ccc(F)cc3)cs2)cc1`, the AC50 is > 26 µM (inactive).

Consider `Cc1ccc(-c2c[n+]3c(n2-c2ccccc2)CCC3)cc1`, for which the AC50 is > 26 µM (inactive).

In the case of `Cc1cc(O)c2c(c1)C(=O)C13C(=C2O)C(=O)[C@H]2[C@@H](O)[C@@H]1[C@H]1[C@H](O)[C@@H]3C(=O)C3=C(O)c4c(O)cc(C)cc4C(=O)C312` (stereo not given in full), the AC50 is 21.6 µM.

In the case of `O=C(N/N=C/c1ccccc1O)c1cccc(C(F)(F)F)c1`, the AC50 was > 26 µM (inactive).

Consider `CC1(C)C[C@@H]2C[C@@](C)(CN2C(=O)c2cc(COc3cccc(C(F)(F)F)c3)on2)C1`, for which the AC50 was > 12 µM (inactive).

Regarding `CCc1ccc(Nc2n[n+](-c3ccccc3)c(-c3c(Cl)cccc3Cl)s2)cc1`, the AC50 was > 26 µM (inactive).

For `CCn1c(=O)c(C(=O)Nc2ccccn2)c(O)c2ccccc21`, the AC50 was > 26 µM (inactive).

Regarding `O=c1[nH]c(NCCCO)nc2c1C1(CCCC1)Cc1ccccc1-2`, the AC50 is > 26 µM (inactive).

Turning to `CCC(=O)N1c2ccc(S(=O)(=O)N3CCN(c4ccc([N+](=O)[O-])cc4)CC3)cc2CC1C` (stereo not given), the AC50 was > 26 µM (inactive).

As for `Nc1cc2c3c(cccc3c1)C(=O)N(CCN1CCCC1)C2=O`, the AC50 is 15.4 µM.

Regarding `COc1ccc(C2=NNC(=Nc3cc(S(=O)(=O)N(C)C)ccc3C)SC2)c(OC)c1`, the AC50 is 24.8 µM.

Take `CCN(CC)c1ccc(/C=N/NC(=O)c2cccc(S(=O)(=O)Nc3ccccc3OC)c2)c(O)c1`: the AC50 was > 26 µM (inactive).

For `Cc1ccccc1-[n+]1c(-c2ccccc2)cc(-c2ccccc2)cc1-c1ccccc1`, the AC50 was > 26 µM (inactive).

As to `CC1CC(=O)N(c2ccc(Br)cc2)C(=O)C1`, the AC50 was > 26 µM (inactive).

Regarding `Cc1[nH]c2ccccc2c1CN1CCC(Cc2ccccc2)CC1`, the AC50 was > 26 µM (inactive).

For the compound `O=C(Nc1ccccc1Cl)/C(Cl)=C(\Cl)S(=O)c1ccccc1` (stereo not given), the AC50 was > 26 µM (inactive).

As for `Cc1cc(C)nc(N/N=C/c2cc(Br)ccc2O)n1`, the AC50 was > 26 µM (inactive).

For `CCn1c(SCC(=O)Nc2ccc(OC)cc2)nc2nc3c(cc2c1=O)CCCC3`, the AC50 is > 26 µM (inactive).

For `COc1ccc(-[n+]2c(C)cc(/C=C3\Sc4ccccc4N3C)cc2C)cc1`, the AC50 is > 26 µM (inactive).

Regarding `COc1ccc(CNCCC(c2ccccc2)c2ccc3c(c2)OCO3)cc1` (stereo not given), the AC50 is > 26 µM (inactive).

With `Cc1ccc(-c2csc(N3CCC(NS(=O)(=O)c4ccc5c(c4)OCCO5)CC3)n2)cc1`, the AC50 is > 26 µM (inactive).

As to `c1cnc(N2CCN(Cc3c[nH]c4ccccc34)CC2)nc1`, the AC50 was > 26 µM (inactive).

For `C/C(=N\Nc1nc(C)cc(-c2ccccc2)n1)c1ccccc1`, the AC50 is > 26 µM (inactive).

Turning to `COc1ccc(-c2csc(NC(=O)c3ccccc3NS(=O)(=O)c3ccc(F)c(F)c3)n2)cc1`, the AC50 is > 26 µM (inactive).

Turning to `COc1ccc(/C=N/N2CCN(Cc3ccccc3)CC2)cc1`, the AC50 was > 26 µM (inactive).

`CCN(CC)CCOc1ccc2c(c1)C(=NO)c1cc(OCCN(CC)CC)ccc1-2`: the AC50 was 6.61 µM.

For `Cc1ccc(-c2ccc(/C=C3\C(=O)ON=C3c3ccccc3)o2)c([N+](=O)[O-])c1`, the AC50 was > 26 µM (inactive).

In the case of `CCc1ccc2[nH]c3nc(N/N=C/c4ccc(O)cc4O)nnc3c2c1`, the AC50 is > 12 µM (inactive).

In the case of `O=C(N/N=C(\c1ccccc1)c1ccccn1)c1cccc([N+](=O)[O-])c1`, the AC50 was > 26 µM (inactive).

With `C=C1C(=O)O[C@@H]2C[C@@H](C)[C@@H]3C=CC(=O)[C@@]3(C)[C@@H](OC(C)=O)[C@H]12`, the AC50 is > 26 µM (inactive).

For `N=c1c2c(n(Cc3cccc(Cl)c3)c3c1CCC3)CCCC2`, the AC50 was > 26 µM (inactive).

Regarding `Cc1ccc2c(C)ccc(O)c2n1`, the AC50 is > 26 µM (inactive).

In the case of `COc1ccc(/C=N/Nc2cc(C)nc3ccc(OC)cc23)c(OC)c1`, the AC50 was 10.7 µM.

For `O=C(N/N=C/c1ccc[nH]1)c1ccc(COc2cccc3cccnc23)cc1`, the AC50 is > 26 µM (inactive).

In the case of `CCOC(=O)N1CCN(Cc2cc(Cl)c3cccnc3c2O)CC1`, the AC50 was > 26 µM (inactive).

In the case of `Cc1nc(C(F)(F)F)c(C(=O)N/N=C(\N)c2ccccn2)s1`, the AC50 is > 26 µM (inactive).

For `O=C(CN1CC[n+]2c(-c3cccs3)csc21)c1ccc(-c2ccccc2)cc1`, the AC50 is > 26 µM (inactive).

Consider `Cc1cc(C)c2nc(NNC(=O)c3ccc(S(=O)(=O)N4CCCC(C)C4)cc3)sc2c1` (stereo not given), for which the AC50 was > 26 µM (inactive).

For `O=C(N/N=C/c1ccc(O)cc1O)c1ccc(NC(=O)C2CCCCC2)cc1`, the AC50 was > 26 µM (inactive).

Turning to `Cc1cc(C(=O)C(C)OC(=O)c2ccc(NC(=O)CC#N)cc2)c(C)n1-c1ccc(OC(F)F)cc1` (stereo not given), the AC50 is > 26 µM (inactive).

Turning to `CCc1ccc(S(=O)(=O)/N=C2/C=C(Sc3ncn[nH]3)C(=O)c3ccccc32)cc1`, the AC50 was > 26 µM (inactive).

On to `COc1ccc(C(=O)Nc2ccccc2C(=O)N/N=C/c2ccccn2)cc1OC`, for which the AC50 was > 26 µM (inactive).

As for `Cc1ccc(-n2c(Cl)c(Cl)nc(Cl)c2=O)cc1`, the AC50 was > 26 µM (inactive).

For `CCN(CC)CCNC(=O)c1ccc2c(c1NCCO)C(=O)c1ccccc1C2=O`, the AC50 was > 26 µM (inactive).

Consider `O=C(O)c1ccc(S(=O)(=O)/N=C2\C=C(Nc3ccccc3F)C(=O)c3ccccc32)cc1`, for which the AC50 is > 26 µM (inactive).

Regarding `C#CCOCCOCCOCCNc1nc(N2CCN(C(=O)CCCCCCCCCCNC(=O)Cn3cc(CCCCCN)nn3)CC2)nc(N2CCN(C(=O)CCCCCCCCCCNC(=O)[C@H]([C@@H](C)CC)n3cc(CCCCN=C(N)N)nn3)CC2)n1`, the AC50 is > 26 µM (inactive).

As for `CC[C@@]1(O)C(=O)OCc2c1cc1n(c2=O)Cc2cc3c(N)cccc3nc2-1`, the AC50 is 0.36 µM.

As to `OCCN1CCN(C2Cc3cc(Cl)ccc3Sc3ccc(Cl)cc32)CC1` (stereo not given) (tested in a mixture with another compound), the AC50 was > 26 µM (inactive).

In the case of `CCCCCCCCCCOC(=O)Cn1c(COc2cccc(OC)c2)[n+](C)c2ccccc21`, the AC50 was > 26 µM (inactive).

On to `CN1/C(=C\C(=O)CN2C(=O)NC3(CCCCCC3)C2=O)C(C)(C)c2ccccc21`, for which the AC50 was > 12 µM (inactive).

`Cc1ccc2nc(-c3ccccn3)c(Nc3ccccc3C)n2c1`: the AC50 was > 26 µM (inactive).

As for `O=C(NC(=S)NNC(=O)c1cnccn1)c1ccc(F)cc1`, the AC50 is > 26 µM (inactive).

As to `CNc1ccc2oc(C[C@H]3O[C@@]4(CC[C@H]3C)O[C@H]([C@H](C)C(=O)c3ccc[nH]3)[C@H](C)C[C@H]4C)nc2c1C(=O)O`, the AC50 is > 26 µM (inactive).

As for `CCc1ccc(OC)c(S(=O)(=O)Nc2ccc(Cc3ccncc3)cc2)c1`, the AC50 was > 26 µM (inactive).

`Cc1ccc(C(C)C)c(OCc2nn(CC(=O)c3ccc(Cl)cc3)c3[n+]2CCCCC3)c1`: the AC50 is > 26 µM (inactive).

On to `COc1ccccc1/C=N/OCc1cc(C(C)=O)ccc1OC`, for which the AC50 is > 26 µM (inactive).

As for `COC(=O)[C@@H](Cc1ccccc1)N(Cc1ccccc1)S(=O)(=O)N(Cc1ccccc1)[C@H](Cc1ccccc1)C(=O)OC`, the AC50 was > 26 µM (inactive).

Regarding `CC1CCCCC1NS(=O)(=O)c1ccc(S(=O)(=O)NCc2ccncc2)cc1` (stereo not given), the AC50 is > 26 µM (inactive).

Turning to `COC(=O)c1cc(=O)n(CCc2ccccc2F)c(=Nc2ccc(F)c(Cl)c2)s1`, the AC50 is > 26 µM (inactive).

On to `Cc1ccc(C(=O)NC2CCCc3c2cnn3-c2ccc(F)cc2F)cn1` (stereo not given), for which the AC50 is > 26 µM (inactive).

On to `COc1ccc(Nc2ccc3c(c2)=NC2(CCCCC2)[N+]=3[O-])cc1`, for which the AC50 is > 26 µM (inactive).

On to `Oc1c(C(Nc2cccc(C(F)(F)F)c2)c2ccncc2)ccc2cccnc12` (stereo not given), for which the AC50 is > 26 µM (inactive).

Take `Cc1nnc(N=c2ssnc2Cl)o1`: the AC50 was > 26 µM (inactive).

For the compound `COc1ccccc1N1CCN(c2ncc(C(=O)N3CCN(c4cccc(Cl)c4)CC3)c3ccccc23)CC1`, the AC50 was > 26 µM (inactive).

Consider `c1cc(-c2noc(CC3CCCCC3)n2)ccn1`, for which the AC50 was > 26 µM (inactive).

Turning to `COC(=O)C1CCCCN1C(=O)c1cc(COc2cccc3cnccc23)on1` (stereo not given), the AC50 was > 26 µM (inactive).

Take `CC(C)n1cnc2c(NCc3ccccc3)cc(N[C@H](C)CO)cc21`: the AC50 is > 26 µM (inactive).

`CCN(CC)CCOc1ccc2c(c1)C(=NNC(=O)c1ccccn1)c1cc(OCCN(CC)CC)ccc1-2`: the AC50 is > 26 µM (inactive).

For `C[C@@H]1CN([C@H](C)CO)C(=O)c2cc(NC(=O)Nc3ccc(C(F)(F)F)cc3)ccc2O[C@H]1CN(C)S(=O)(=O)c1cccs1`, the AC50 was > 26 µM (inactive).

Consider `CCN(CC)S(=O)(=O)c1ccc(N2CCN(c3ccccc3OC)CC2)c(N)c1`, for which the AC50 is > 26 µM (inactive).
